48 compounds from ChEMBL document CHEMBL3301361, “Experimental in vitro DMPK and physicochemical data on a set of publicly disclosed compounds” can be followed below.

Data set [1] can be described thus: physchem. As to conditions: pH 7.4 buffer.
The nature of data set [2]: physchem. The conditions noted are these: octan-1-ol/water.

The structures appear in SMILES notation. In brackets after ≈: the same amount, converted by molar mass.

In “physchem [1]”, `COc1cc(OC2CCNCC2)ccc1Nc1ncc(Cl)c(-c2cnc3ccccn23)n1` registered a solubility (thermodynamic) of 30.9 µM (≈ 13.9 µg/mL). In the data set “physchem [2]” (pH 7.4, LogD7.4), the pH-dependent lipophilicity (logD) was 1.8.
Taken in the same sequence, the figures for `Cc1cccc(NS(=O)(=O)c2cccc3nonc23)c1` were 81.3 µM (≈ 23.5 µg/mL) and 3.
Compound `COc1ccc(Nc2nccc(-c3cnc(C)n3C(C)C)n2)cc1` gave a thermodynamic solubility in the data set “physchem [1]” of 209 µM (≈ 67.6 µg/mL). Moreover, the log distribution coefficient (logD) in “physchem [2]” (pH 7.4, LogD7.4) stood at 3.43.
Taken in the same sequence, the figures for `CC(=O)c1ccc2[nH]c(-c3cccnc3)cc(=O)c2c1` were 126 µM (≈ 33.3 µg/mL) and 1.41.
In turn, `NC(=O)COc1ccc(OCCNCC(O)COc2ccccc2)cc1` (stereo unspecified) displayed a solubility (thermodynamic) in “physchem [1]” of 661 µM (≈ 238 µg/mL). In “physchem [2]” (pH 7.4, LogD7.4), this compound showed a logD of 0.63.
Taken in the same sequence, the figures for `CN1CCC(Oc2cccc3ncnc(Nc4ccc(OCc5cnccn5)c(Cl)c4)c23)CC1` were 12.3 µM (≈ 5.87 µg/mL) and 3.21.
In turn, `Cc1ccc(Oc2ccc(Nc3ncnc4[nH]nc(OCCN5CCC(O)CC5)c34)cc2Cl)cn1` came in with a thermodynamic solubility in “physchem [1]” of 28.2 µM (≈ 14 µg/mL). Further, the pH-dependent lipophilicity (logD) in “physchem [2]” (pH 7.4, LogD7.4) turned out to be 3.4.
`FC(F)(F)c1nnc2ccc(N3CCCC3)nn12` showed a solubility (thermodynamic) in “physchem [1]” of 417 µM (≈ 107 µg/mL). Further, the logD in the data set “physchem [2]” (pH 7.4, LogD7.4) is 2.41.
Taken in the same sequence, the figures for `Oc1ccc(-c2nc3ccc(O)cc3s2)cc1` were 27.5 µM (≈ 6.69 µg/mL) and 3.65.
Taken in the same sequence, the figures for `CCN(CCN(C)C)S(=O)(=O)c1ccc(-c2cnc(N)c(C(=O)Nc3cccnc3)n2)cc1` were 490 µM (≈ 230 µg/mL) and 2.
For `CC(C)COc1cc(OC(C)C)cc(C(=O)Nc2ccc(C(=O)O)cn2)c1`, in that order: 190 µM (≈ 70.9 µg/mL) and 1.6.
With `CSCCC(NC(=O)c1sccc1Cl)c1nc2ccccc2[nH]1` (stereo unspecified), the solubility (thermodynamic) in the data set “physchem [1]” amounted to 25.7 µM (≈ 9.4 µg/mL). The logD in “physchem [2]” (pH 7.4, LogD7.4) was determined as 3.69.
For `COc1cc2ncnc(Nc3ccc(Cl)c(O)c3)c2cc1OC`, in that order: 1.4 µM (≈ 0.464 µg/mL) and 3.3.
Taken in the same sequence, the figures for `COc1cc2c(Nc3cc(CC(=O)Nc4cccc(F)c4F)[nH]n3)ncnc2cc1OCCCN(CCO)CC(C)C` were 132 µM (≈ 76.9 µg/mL) and 3.61.
In the case of `O=C(CCN1CCCCC1)Nc1ccc(-c2cccn3c(=O)cc(N4CCOCC4)nc23)c2sc3ccccc3c12`, the solubility (thermodynamic) in the data set “physchem [1]” turned out to be 16.6 µM (≈ 9.42 µg/mL). This compound gave a logD in “physchem [2]” (pH 7.4, LogD7.4) of 2.9.
In “physchem [1]”, `Cn1cnc(-c2ccccc2)c1C#Cc1ccnc(N)n1` returned a solubility (thermodynamic) of 17 µM (≈ 4.68 µg/mL). In addition, in “physchem [2]” (pH 7.4, LogD7.4), the logD is 2.94.
With `COc1cc(Nc2cc(Oc3ccc(C)nc3)ccn2)cc(OC)c1OC`, the thermodynamic solubility in “physchem [1]” was found to be 31.6 µM (≈ 11.6 µg/mL). The logD in “physchem [2]” (pH 7.4, LogD7.4) is 3.21.
Taken in the same sequence, the figures for `O=C(O)c1c(Sc2ccccc2)c2cc(Cl)ccc2n1Cc1ccc(Cl)cc1` were 132 µM (≈ 56.5 µg/mL) and 2.96.
Turning to `Cc1ccnc2nc(C(=O)Nc3nccs3)nn12`, in “physchem [1]”, the solubility (thermodynamic) was found to be 339 µM (≈ 88.2 µg/mL). For the same compound, in “physchem [2]” (pH 7.4), the log distribution coefficient (logD) came out at 0.31.
On to `COc1cc2ncnc(Nc3cccc(Cl)c3F)c2cc1CN1CCC[C@H]1CC(N)=O`, for which the solubility (thermodynamic) in “physchem [1]” was determined as 234 µM (≈ 104 µg/mL). The compound further gave a logD in the data set “physchem [2]” (pH 7.4, LogD7.4) of 2.64.
Taken in the same sequence, the figures for `Cc1onc(CO)c1C(=O)Nc1nccs1` were 144 µM (≈ 34.6 µg/mL) and 1.53.
For `CCOC(=O)Nc1ccc2c(c1)N(C(=O)CCN1CCOCC1)c1ccccc1S2` [MORICIZINE], in that order: 83.2 µM (≈ 35.6 µg/mL) and 3.1.
Taken in the same sequence, the figures for `Cc1sc(N)nc1-c1ccccc1` were 955 µM (≈ 182 µg/mL) and 2.75.
The compound `C[C@H](CN(C)C(=O)CO)Oc1cccc2ncnc(Nc3ccc(OCc4ccccn4)c(Cl)c3)c12` came in with a thermodynamic solubility in “physchem [1]” of 12.6 µM (≈ 6.4 µg/mL). Besides, the logD in “physchem [2]” (pH 7.4, LogD7.4) came to 3.22.
Taken in the same sequence, the figures for `O=C(Cn1cnc2ccccc21)c1ccc(Br)cc1` were 129 µM (≈ 40.6 µg/mL) and 3.22.
Taken in the same sequence, the figures for `COc1cc2ncnc(Nc3cccc(Cl)c3F)c2cc1CN(C)[C@H](C)C(N)=O` were 41.7 µM (≈ 17.4 µg/mL) and 3.44.
Taken in the same sequence, the figures for `CCc1cccc2c(C#N)cn(CC(=O)NCCOC)c12` were 37.2 µM (≈ 10.6 µg/mL) and 1.95.
Compound `O=C(Nc1ccc(N2CCOCC2)nc1)c1nnc(Nc2ccccc2)o1` had a solubility (thermodynamic) in the data set “physchem [1]” of 1.9 µM (≈ 0.696 µg/mL). The compound also gave a log distribution coefficient (logD) in the data set “physchem [2]” (pH 7.4, LogD7.4) of 2.9.
In the case of `CN1CCN(c2ccc(NC(=O)c3nnc(Nc4ccccc4F)o3)cn2)CC1`, the solubility (thermodynamic) in “physchem [1]” is 91.2 µM (≈ 36.2 µg/mL). Besides, the log distribution coefficient (logD) in the data set “physchem [2]” (pH 7.4, LogD7.4) was 2.36.
For `CN(C)C/C=C/C(=O)Nc1cc2c(Nc3ccc(F)c(Cl)c3)ncnc2cc1O[C@H]1CCOC1` [AFATINIB], in that order: 93.3 µM (≈ 45.3 µg/mL) and 3.7.
For `O=C(c1ccc(F)cc1)C(O)c1ccc(F)cc1` (stereo unspecified), in that order: 933 µM (≈ 232 µg/mL) and 2.49.
For `CC1(c2nc(N3CCOCC3)ncc2C(=O)N[C@H]2C3CC4CC2C[C@](O)(C4)C3)CC1`, in that order: 407 µM (≈ 168 µg/mL) and 2.
Consider `CC(C)C[C@H](NC(=O)N1CCOCC1)C(=O)N[C@H](/C=C/S(=O)(=O)c1ccccc1)CCc1ccccc1`, for which, in the data set “physchem [1]”, the solubility (thermodynamic) is 17 µM (≈ 8.97 µg/mL). This compound also displayed a log distribution coefficient (logD) in the data set “physchem [2]” (pH 7.4, LogD7.4) of 3.4.
Taken in the same sequence, the figures for `Cc1nc(C)c(-c2ccc(C34CCC(CC(=O)O)(CC3)CC4)cc2)nc1C(N)=O` were 112 µM (≈ 44.1 µg/mL) and 1.6.
In turn, `COc1ccc2c(c1)[nH]c1c(C)nccc12` [HARMINE] had a thermodynamic solubility in the data set “physchem [1]” of 55 µM (≈ 11.7 µg/mL). For the same compound, the logD in “physchem [2]” (pH 7.4) was found to be 2.9.
`CS(=O)(=O)c1ccc2[nH]c3c(c2c1)CN(C(=O)[C@@H]1CCCC[C@H]1C(=O)NC1(C#N)CC1)CC3`: in “physchem [1]”, the solubility (thermodynamic) amounted to 190 µM (≈ 89.3 µg/mL). The log distribution coefficient (logD) in the data set “physchem [2]” (pH 7.4, LogD7.4) was determined as 1.5.
For `COc1ccc(C(=O)CS(=O)(=O)c2ccccc2)cc1`, in that order: 53.7 µM (≈ 15.6 µg/mL) and 1.96.
In “physchem [1]”, `CN(C)CC(O)COc1ccc(Nc2nccc(Nc3cccc(Cl)c3)n2)cc1` (stereo unspecified) yielded a solubility (thermodynamic) of 120 µM (≈ 49.8 µg/mL). Moreover, in the data set “physchem [2]” (pH 7.4, LogD7.4), the logD came out at 2.5.
For `CS(=O)(=O)c1cccc(Nc2nccc(Nc3cccc4c3OCO4)n2)c1`, in that order: 5.9 µM (≈ 2.27 µg/mL) and 2.83.
As to `COc1ccc(S(=O)(=O)Nc2ccc(/C=C/C(=O)Nc3ccccc3N)cc2)cc1OC`, the solubility (thermodynamic) in the data set “physchem [1]” worked out at 7.8 µM (≈ 3.54 µg/mL). The compound also came in with a logD in the data set “physchem [2]” (pH 7.4, LogD7.4) of 2.56.
In “physchem [1]”, `CC(=O)N1CCN(CCOc2cc(OC(C)C)c3c(Nc4c(F)ccc5c4OCO5)ncnc3c2)CC1` yielded a thermodynamic solubility of 27.5 µM (≈ 14.1 µg/mL). The compound also showed a log distribution coefficient (logD) in the data set “physchem [2]” (pH 7.4, LogD7.4) of 3.06.
The compound `CS(=O)(=O)n1c2ccccc2c2cc(NC(=O)CCc3ccncc3)ccc21` displayed a thermodynamic solubility in the data set “physchem [1]” of 22.9 µM (≈ 9.01 µg/mL). The logD in the data set “physchem [2]” (pH 7.4, LogD7.4) amounted to 3.4.
Taken in the same sequence, the figures for `COc1cc(OC)nc(-n2ncc(Cl)c(Cl)c2=O)n1` were 70.8 µM (≈ 21.5 µg/mL) and 1.4.
Taken in the same sequence, the figures for `Cc1cc(Oc2ccnc(Nc3ccc(S(N)(=O)=O)cc3)c2)c(-c2ccccn2)nc1C` were 2.5 µM (≈ 1.12 µg/mL) and 2.34.
Taken in the same sequence, the figures for `CN(CCOc1ccc(C[C@H](Nc2ccccc2C(=O)c2ccccc2)C(=O)O)cc1)c1ccccn1` were 219 µM (≈ 108 µg/mL) and 2.15.
Compound `Cc1cnc(Nc2ccc(OCC(O)CN(C)C)cc2)nc1Nc1ccccc1` (stereo unspecified) had a solubility (thermodynamic) in “physchem [1]” of 724 µM (≈ 285 µg/mL). For the same compound, the logD in the data set “physchem [2]” (pH 7.4, LogD7.4) stood at 2.
Taken in the same sequence, the figures for `c1ccc(Nc2ccccc2)cc1` [DIPHENYLAMINE] were 178 µM (≈ 30.1 µg/mL) and 3.2.
Taken in the same sequence, the figures for `O=S(=O)(Nc1ccc(S(=O)(=O)Nc2nccs2)cc1)c1ccc2c(c1)OCCO2` were 0.7 µM (≈ 0.317 µg/mL) and 1.97.
